Reference: PubChem BioAssay AID1963825 (Molecular Pharmacology Branch, DTP, NCI, 2024)

Experiment: Anticancer human tumor 997537-175-T-J1-PDC patient-derived colon adenocarcinoma cell line growth inhibition [POLQ]
Settings: 997537-175-T-J1-PDC complex spheroid viability, combination with POLQ inhibitors; for IC50: curve of first compound; for viability, T/C: stronger effect = lower value
Procedure, shortened: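 Complex spheroid viability model combining PDC tumour cells with endothelial (HUVEC) and MSC stromal cells. Novobiocin, ART-558 or RP6685 were tested singly and in combination with standard and investigational anticancer drugs. Each was titrated in half-log steps from near clinical Cmax, or from 10 microM where Cmax was unknown.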
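Further: luminescence signal used as a surrogate for viable cells; spheroids exposed to drugs for seven days before readout.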

Q: With `CC(=O)O[C@H]1C(=O)[C@@]2(C)[C@H]([C@H](OC(=O)c3ccccc3)[C@]3(O)C[C@H](OC(=O)[C@H](O)[C@@H](NC(=O)c4ccccc4)c4ccccc4)C(C)=C1C3(C)C)[C@]1(OC(C)=O)CO[C@@H]1C[C@@H]2O` + Nc1ccc(C#CCN(C(=O)Cc2ncc(C(F)(F)F)cc2C(F)(F)F)c2ccc(F)cc2)nn1 as the compound, how does the IC50 (second compound 0.0316 µM) read?
A: 27 nM

Q: And the IC50 (second compound 0.1 µM)?
A: 50.1 nM

Q: What about the IC50 (second compound 0.316 µM) of the same compound?
A: 16.8 nM

Q: What about the IC50 (second compound 1 µM) of the same compound?
A: 14.8 nM

Q: What about the IC50 (second compound 3.16 µM) of the same compound?
A: 32.5 nM

Q: What about the IC50 (second compound 10 µM) of the same compound?
A: 18.5 nM

Q: And the viability, T/C (second compound 0.0316 µM, first compound 0.00949 µM)?
A: 50.5%

Q: What about the viability, T/C (second compound 0.0316 µM, first compound 0.03 µM) of the same compound?
A: 57.6%

Q: What about the viability, T/C (second compound 0.0316 µM, first compound 0.0949 µM) of the same compound?
A: 32.5%

Q: What about the viability, T/C (second compound 0.0316 µM, first compound 0.3 µM) of the same compound?
A: 55.7%

Q: What about the viability, T/C (second compound 0.0316 µM, first compound 0.949 µM) of the same compound?
A: 33.8%

Q: And the viability, T/C (second compound 0.0316 µM, first compound 3 µM)?
A: 34.3%

Q: What about the viability, T/C (second compound 0.1 µM, first compound 0.00949 µM) of the same compound?
A: 70%

Q: And the viability, T/C (second compound 0.1 µM, first compound 0.03 µM)?
A: 28.4%

Q: And the viability, T/C (second compound 0.1 µM, first compound 0.0949 µM)?
A: 58%

Q: What about the viability, T/C (second compound 0.1 µM, first compound 0.3 µM) of the same compound?
A: 46.9%

Q: What about the viability, T/C (second compound 0.1 µM, first compound 0.949 µM) of the same compound?
A: 23.3%

Q: What about the viability, T/C (second compound 0.1 µM, first compound 3 µM) of the same compound?
A: 23.3%

Q: What about the viability, T/C (second compound 0.316 µM, first compound 0.00949 µM) of the same compound?
A: 69.7%

Q: And the viability, T/C (second compound 0.316 µM, first compound 0.03 µM)?
A: 27.3%

Q: And the viability, T/C (second compound 0.316 µM, first compound 0.0949 µM)?
A: 27.9%

Q: What about the viability, T/C (second compound 0.316 µM, first compound 0.3 µM) of the same compound?
A: 16.8%

Q: And the viability, T/C (second compound 0.316 µM, first compound 0.949 µM)?
A: 41.3%

Q: And the viability, T/C (second compound 0.316 µM, first compound 3 µM)?
A: 37.1%

Q: And the viability, T/C (second compound 1 µM, first compound 0.00949 µM)?
A: 55.2%

Q: What about the viability, T/C (second compound 1 µM, first compound 0.03 µM) of the same compound?
A: 44.6%

Q: And the viability, T/C (second compound 1 µM, first compound 0.0949 µM)?
A: 31.6%

Q: And the viability, T/C (second compound 1 µM, first compound 0.3 µM)?
A: 25.8%

Q: What about the viability, T/C (second compound 1 µM, first compound 0.949 µM) of the same compound?
A: 30.1%

Q: And the viability, T/C (second compound 1 µM, first compound 3 µM)?
A: 38.3%

Q: What about the viability, T/C (second compound 3.16 µM, first compound 0.00949 µM) of the same compound?
A: 54.5%

Q: What about the viability, T/C (second compound 3.16 µM, first compound 0.03 µM) of the same compound?
A: 48.2%

Q: And the viability, T/C (second compound 3.16 µM, first compound 0.0949 µM)?
A: 44.2%

Q: What about the viability, T/C (second compound 3.16 µM, first compound 0.3 µM) of the same compound?
A: 36%

Q: And the viability, T/C (second compound 3.16 µM, first compound 0.949 µM)?
A: 24.6%

Q: And the viability, T/C (second compound 3.16 µM, first compound 3 µM)?
A: 31%

Q: What about the viability, T/C (second compound 10 µM, first compound 0.00949 µM) of the same compound?
A: 68.6%

Q: What about the viability, T/C (second compound 10 µM, first compound 0.03 µM) of the same compound?
A: 35.8%

Q: And the viability, T/C (second compound 10 µM, first compound 0.0949 µM)?
A: 37.6%

Q: What about the viability, T/C (second compound 10 µM, first compound 0.3 µM) of the same compound?
A: 33.4%

Q: And the viability, T/C (second compound 10 µM, first compound 0.949 µM)?
A: 38.5%

Q: What about the viability, T/C (second compound 10 µM, first compound 3 µM) of the same compound?
A: 23.9%
